The test system of assay [1] is MDA-MB-231. Kind of assay: Induction of cell cycle arrest in human MDA-MB-231 cells assessed as accumulation of cells in S phase at 10 uM incubated for 24 hrs by PI staining based flow cytometry analysis (reference value: 16.61 %). In kind it is functional. In general terms: In flow cytometry, cells or beads pass a laser one at a time.
In assay [2] the test system is MDA-MB-231. Kind of assay: Induction of cell cycle arrest in human MDA-MB-231 cells assessed as accumulation of cells in G1 phase at 10 uM incubated for 24 hrs by PI staining based flow cytometry analysis (reference value: 74.44 %). In kind it is functional.
In assay [3] the test system is MDA-MB-231. The assay can be described thus: Induction of apoptosis in human MDA-MB-231 cells assessed as early apoptotic cells at 10 uM incubated for 24 hrs by annexin V-FITC and PI staining based flow cytometry analysis (reference value: 4.66 %). It counts as functional.
Assay [4] relates to MDA-MB-231. The assay can be described thus: Induction of apoptosis in human MDA-MB-231 cells assessed as necrotic cells at 10 uM incubated for 24 hrs by annexin V-FITC and PI staining based flow cytometry analysis (reference value: 0.68 %). It counts as functional.
In assay [5] the test system is MDA-MB-231. The assay can be described thus: Induction of cell cycle arrest in human MDA-MB-231 cells assessed as accumulation of cells in G2/G1 phase at 10 uM incubated for 24 hrs by PI staining based flow cytometry analysis (reference value: 1.80 %). It counts as functional.
Assay [6] has as its system MDA-MB-231. Kind of assay: Induction of apoptosis in human MDA-MB-231 cells assessed as viable cells at 10 uM incubated for 24 hrs by annexin V-FITC and PI staining based flow cytometry analysis (reference value: 93.6 %). The conditions noted are these: read-out: Activity. In kind it is functional.
The subject of assay [7] is MDA-MB-231. Kind of assay: Induction of apoptosis in human MDA-MB-231 cells assessed as late apoptotic cells at 10 uM incubated for 24 hrs by annexin V-FITC and PI staining based flow cytometry analysis (reference value: 1.02 %). It counts as functional.
The test system of assay [8] is MDA-MB-231. The assay can be described thus: Induction of cell cycle arrest in human MDA-MB-231 cells assessed as accumulation of cells in G2 phase at 10 uM incubated for 24 hrs by PI staining based flow cytometry analysis (reference value: 8.95 %). In kind it is functional.
Assay [9] deals with MDA-MB-231. Kind of assay: cells. It counts as functional, cell-based. The settings on record: Homo sapiens, MDA-MB-231, 74 h.
Description: Antiproliferative activity against human MDA-MB-231 cells assessed as inhibition of cell growth measured after 74 hrs by SRB assay
The test system of assay [10] is A549. Kind of assay: cells. It counts as functional, cell-based. The settings on record: Homo sapiens, A549, 74 h.
Description: Antiproliferative activity against human A549 cells assessed as inhibition of cell growth measured after 74 hrs by SRB assay
For assay [11], the system named is HepG2. The assay can be described thus: Antiproliferative activity against human HepG2 cells assessed as inhibition of cell growth measured after 74 hrs by SRB assay. It counts as functional, cell-based. The conditions noted are these: HepG2, 74 h. Background: The SRB assay estimates cell density from bound dye.
For assay [12], the system named is HeLa. The assay can be described thus: cells. It counts as functional, cell-based. The conditions noted are these: Homo sapiens, 74 h.
Description: Antiproliferative activity against human HeLa cells assessed as inhibition of cell growth measured after 74 hrs by SRB assay
Assay [13] has as its target 72 kDa type IV collagenase (Homo sapiens, UniProt P08253). The assay can be described thus: Inhibition of MMP2 (unknown origin) using Mca-PLGLDpaAR fluorescent substrate incubated for 2 hrs by microplate reader method.

pIC50: −log10 of the molar value. A value given as a limit tells only on which side of the number the result lay.

Sequence of 72 kDa type IV collagenase (P08253 whole entry): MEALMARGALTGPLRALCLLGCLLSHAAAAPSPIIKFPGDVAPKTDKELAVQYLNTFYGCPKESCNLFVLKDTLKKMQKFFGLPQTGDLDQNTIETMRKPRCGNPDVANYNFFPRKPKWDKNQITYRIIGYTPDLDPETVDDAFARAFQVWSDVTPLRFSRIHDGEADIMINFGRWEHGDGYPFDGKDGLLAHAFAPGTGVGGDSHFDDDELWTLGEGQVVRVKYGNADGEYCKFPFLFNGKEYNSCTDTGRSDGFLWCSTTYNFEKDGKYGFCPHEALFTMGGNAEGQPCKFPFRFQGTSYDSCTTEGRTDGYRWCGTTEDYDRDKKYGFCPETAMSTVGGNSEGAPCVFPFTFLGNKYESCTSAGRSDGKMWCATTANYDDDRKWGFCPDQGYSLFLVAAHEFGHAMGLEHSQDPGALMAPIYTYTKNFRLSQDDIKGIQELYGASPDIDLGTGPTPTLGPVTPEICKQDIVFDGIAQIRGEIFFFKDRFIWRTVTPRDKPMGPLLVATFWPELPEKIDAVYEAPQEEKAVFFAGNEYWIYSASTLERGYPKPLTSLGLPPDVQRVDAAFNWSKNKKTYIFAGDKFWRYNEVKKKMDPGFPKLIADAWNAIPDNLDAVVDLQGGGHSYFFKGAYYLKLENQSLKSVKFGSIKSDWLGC

For the compound `COc1ccc(/C=C\c2cc(OC)c(OC)c(OC)c2)cc1O` [COMBRETASTATIN A4], the Activity in [1] came to 0%; in assay [2], 8.4%; in [3], 20.6%; in [4], 0.73%; in assay [5] it was 1.8%; in [7] it was 4.95%. In addition, the Activity in assay [8] is recorded as 91.6%. Also, the viability at 10 µM in [6] was 73.7%.
With `O=C1C=CC2(C=C1)OCC(=O)N2S(=O)(=O)c1ccc([N+](=O)[O-])cc1`, the pIC50 in assay [9], in assay [10], in assay [11] and in assay [12] was less than 5.00 throughout.
For `CS(=O)(=O)N1C(=O)COC12C=CC(=O)C=C2`, the pIC50 (in general, the IC50 on a negative log10 scale, so that one unit is a factor of ten) in assay [9] is less than 5.00; in [10], less than 5.00; in assay [11], less than 5.00; in assay [12], 5.12.
`Cc1ccc(S(=O)(=O)N2C(=O)C(C)OC23C=CC(=O)C=C3)cc1` (configuration not stated): the pIC50 in assay [9] is 5.96; in assay [10] it was less than 5.00; in assay [11], 6.27; in assay [12], less than 5.00.
On to `O=C1C=CC2(C=C1)OCC(=O)N2S(=O)(=O)c1ccccc1OC(F)(F)F`, for which the pIC50 in [9] is less than 5.00; in assay [10] it was less than 5.00; in assay [11] it was less than 5.00; in assay [12] it was 6.85.
`CC(=O)O[C@H]1C(=O)[C@@]2(C)[C@H]([C@H](OC(=O)c3ccccc3)[C@]3(O)C[C@H](OC(=O)[C@H](O)[C@@H](NC(=O)c4ccccc4)c4ccccc4)C(C)=C1C3(C)C)[C@]1(OC(C)=O)CO[C@@H]1C[C@@H]2O` [PACLITAXEL]: in [11], the pIC50 was 7.89.
Take `O=C1C=CC2(C=C1)OCC(=O)N2S(=O)(=O)c1ccc(N2CCCC2=O)cc1`: the pIC50 in assay [9] is less than 5.00; in assay [10] it was 8.30; in assay [11], less than 5.00; in assay [12], 6.06.
As to `Cc1ccccc1S(=O)(=O)N1C(=O)COC12C=CC(=O)C=C2`, the pIC50 in assay [9] was less than 5.00; in assay [10], less than 5.00; in [11], 6.12; in assay [12] it was 5.43.
`COc1ccc(S(=O)(=O)N2C(=O)COC23C=CC(=O)C=C3)cc1`: the pIC50 in [9] is less than 5.00; in [10], less than 5.00; in assay [11], 5.79; in assay [12] it was 6.06.
Turning to `O=C1C=CC2(C=C1)OCC(=O)N2S(=O)(=O)c1ccc(OC(F)(F)F)cc1`, the pIC50 in assay [9] is less than 5.00; in assay [10], 7.40; in [11], less than 5.00; in [12] it was less than 5.00.
Regarding `O=C1C=CC2(C=C1)OCC(=O)N2S(=O)(=O)c1ccc(Br)s1`, the pIC50 was less than 5.00 in assay [9], 7.30 in assay [10], 6.62 in assay [11] and 7.52 in [12].
On to `O=C1C=CC2(C=C1)OCC(=O)N2S(=O)(=O)c1cccc(C(F)(F)F)c1`, for which the pIC50 in [9] is less than 5.00; in assay [10] it was 5.02; in assay [11], less than 5.00; in assay [12], 6.24.
As for `O=C1C=CC2(C=C1)OCC(=O)N2S(=O)(=O)c1ccc(F)c(F)c1`, the pIC50 in [9] is less than 5.00; in [10] it was 7.30; in [11], less than 5.00; in assay [12] it was 7.52.
`O=C1C=CC2(C=C1)OCC(=O)N2S(=O)(=O)c1ccccc1C(F)(F)F`: the pIC50 is less than 5.00 in [9], less than 5.00 in assay [10], 6.23 in assay [11] and 7.70 in assay [12].
For `N#Cc1cccc(S(=O)(=O)N2C(=O)COC23C=CC(=O)C=C3)c1`, the pIC50 is less than 5.00 in assay [9], 5.72 in [10], less than 5.00 in assay [11] and 6.74 in [12].
For `O=C1C=CC2(C=C1)OCC(=O)N2S(=O)(=O)c1ccccc1`, the negative logarithm of the IC50 (pIC50) in [9], in [10], in assay [11] and in [12] was less than 5.00 in each case.
In the case of `O=C1C=CC2(C=C1)OCC(=O)N2S(=O)(=O)c1ccc(C(F)(F)F)cc1`, the negative logarithm of the IC50 (pIC50) in assay [9] is 5.68; in [10], less than 5.00; in assay [11], 6.12; in assay [12] it was 6.11.
On to `O=C1C=CC2(C=C1)OCC(=O)N2S(=O)(=O)c1cccs1`, for which the pIC50 in [9] was 7.70; in assay [10] it was less than 5.00; in assay [11], less than 5.00; in [12], 5.47.
On to `COc1ccc(S(=O)(=O)N(CC(=O)NO)CC(C)C)cc1`, for which the pIC50 in [13] was 9.23.
Take `CC1OC2(C=CC(=O)C=C2)N(S(=O)(=O)c2cccs2)C1=O` (configuration not stated): the pIC50 was less than 5.00 in [9], less than 5.00 in assay [10], less than 5.00 in assay [11] and 6.57 in assay [12].
`O=C1C=CC2(C=C1)OCC(=O)N2S(=O)(=O)c1ccc(Cl)cc1`: the pIC50 in assay [9] is 5.55; in assay [10], less than 5.00; in assay [11], 6.07; in assay [12] it was less than 5.00.

The values above are taken from ChEMBL document CHEMBL5143618, “Design, synthesis, and antitumor activity evaluation of novel acyl sulfonamide spirodienones” (Bioorg Med Chem, 2022).
